This note sets out measurements from ChEMBL document CHEMBL2203226, “PPAR-γ agonistic metabolites from the ascidian Herdmania momus” (J Nat Prod, 2012).

Each structure is given as a SMILES string. Values after ≈ are worked out from the molar mass of the structure shown. Active and inactive are the calls of the source. No cut-off for these calls is given here.

Assay [1] is described as follows: Antioxidant activity assessed as radical scavenging activity by NBT reduction assay. Format: functional.
Assay [2] relates to Radical scavenging activity. The experiment in a line: Antioxidant activity assessed as DPPH radical scavenging activity. It is filed as functional. In general terms: Loss of DPPH colour is used to gauge radical scavenging.
Assay [3] has as its target T1, Peroxisome proliferator-activated receptor gamma (Homo sapiens) (UniProt P37231).
T1 sequence (whole entry): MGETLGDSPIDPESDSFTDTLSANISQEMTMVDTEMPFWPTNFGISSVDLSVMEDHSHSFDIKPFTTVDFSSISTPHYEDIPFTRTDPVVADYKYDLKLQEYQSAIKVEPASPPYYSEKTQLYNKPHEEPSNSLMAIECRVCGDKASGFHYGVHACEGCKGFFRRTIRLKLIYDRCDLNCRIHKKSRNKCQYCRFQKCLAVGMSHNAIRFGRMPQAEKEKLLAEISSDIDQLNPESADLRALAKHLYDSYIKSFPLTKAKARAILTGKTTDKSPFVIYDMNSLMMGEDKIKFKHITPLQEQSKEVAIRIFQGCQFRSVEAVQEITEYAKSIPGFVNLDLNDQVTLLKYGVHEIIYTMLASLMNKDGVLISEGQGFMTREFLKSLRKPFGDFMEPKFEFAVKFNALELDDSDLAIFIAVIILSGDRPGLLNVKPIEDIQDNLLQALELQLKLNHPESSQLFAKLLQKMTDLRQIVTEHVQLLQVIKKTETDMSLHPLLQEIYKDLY
Nature of the assay: Agonist activity at full length human PPARgamma transfected in rat Ac2F cells cotransfected with PPRE-TK-luc assessed as induction of transactivation activity at 1 ug/ml by luciferase reporter gene assay relative to control. Format: functional, cell-based. (In general: Reporter assays use an easily measured gene product as a stand-in for the process of interest.)

Assay [4] deals with T1, Peroxisome proliferator-activated receptor gamma (Homo sapiens). Nature of the assay: Agonist activity at full length human PPARgamma transfected in rat Ac2F cells cotransfected with PPRE-TK-luc assessed as induction of transactivation activity at 10 ug/ml by luciferase reporter gene assay relative to control. It is filed as functional, cell-based.

For orientation: IC50 means the concentration at which inhibition is half-maximal. Turning to `N[C@@H](Cc1ccc(OC(=O)c2ccc(O)cc2)cc1)C(=O)O`, the IC50 in assay [1] came out at 1.78 µg/mL (≈ 5.91 µM); in assay [2], 2.31 µg/mL (≈ 7.67 µM).

Consider `N[C@H](CCCCNC(=O)C(=O)c1c[nH]c2cc(O)ccc12)C(=O)O`, for which the outcome in assay [3] and in assay [4] was Active.

Turning to `N=C(N)NCCC[C@@H](NC(=O)C(=O)c1c[nH]c2cc(O)ccc12)C(=O)O`, the result in assay [3] and in assay [4] was Active.

On to `O=C(N[C@H](Cc1c[nH]cn1)C(=O)O)C(=O)c1c[nH]c2cc(O)ccc12`, for which the outcome in assay [3] and in assay [4] was Active.
